Measurements: US10947188B2, “Small molecule ferroptosis inducers” (THE TRUSTEES OF COLUMBIA UNIVERSITY IN THE CITY OF NEW YORK, priority 2016, dated 2021)

Columns and labels:
HT-1080 = experiment: Modulatory profiling: Alamar Blue viability, lethal compound cotreated with death modulator (EC50, AUC); type: cell-based; design: AUC, modulator HT.3MA / AUC, modulator HT.ALLN / AUC HT.ATA / AUC HT.ActD / AUC HT.BHA / AUC HT.BHT / AUC HT.BocD / AUC HT.CHX / AUC HT.Co2+ / AUC HT.DPQ / AUC HT.EGTA / AUC HT.Lmim / AUC HT.NAD+ / AUC HT.Nec-1 / AUC HT.SP600125 / AUC HT.TLCK / AUC HT.U0126: unit not given beside the values; conditions: for AUC HT.ATA: HT-1080, modulator ATA; for AUC HT.ActD: HT-1080, modulator ActD; for AUC HT.BHA: HT-1080, modulator BHA; for AUC HT.BHT: HT-1080, modulator BHT; for AUC HT.BocD: HT-1080, modulator BocD; for AUC HT.CHX: HT-1080, modulator CHX; for AUC HT.Co2+: HT-1080, modulator Co2+; for AUC HT.CspA: HT-1080, modulator CspA; for AUC HT.DPQ: HT-1080, modulator DPQ; for AUC HT.EGTA: HT-1080, modulator EGTA; for AUC HT.Gd3+: HT-1080, modulator Gd3+; for AUC HT.LNAME: HT-1080, modulator LNAME; for AUC HT.Lmim: HT-1080, modulator Lmim; for AUC HT.NAD+: HT-1080, modulator NAD+; for AUC HT.NMMA: HT-1080, modulator NMMA; for HT.atoc (AUC) / HT.bCarotene (AUC) / HT.deferox (AUC) / HT.digoxin (AUC) / HT.trolox (AUC) / HT.zVAD (AUC): HT-1080; for HT.atoc (AUC): modulator atoc; for HT.bCarotene (AUC): modulator bCarotene; for HT.deferox (AUC): modulator deferox; for HT.digoxin (AUC): modulator digoxin; for HT.trolox (AUC): modulator trolox; for HT.zVAD (AUC): modulator zVAD; for AUC HT.BHA: reference of the scale not given here; for AUC HT.EGTA: reference of the scale not given here
BJeLR = experiment: as above; type: cell-based, human; design: AUC, modulator BJ.Gd3+ / AUC, modulator BJ.LNAME / AUC, modulator BJ.Lmin / AUC, modulator BJ.3MA / AUC, modulator BJ.ALLN / AUC, modulator BJ.Boc D / AUC, modulator BJ.CHX / AUC, modulator BJ.Co2+ / AUC, modulator BJ.Nec-1 / AUC, modulator BJ.Pepstatin / AUC, modulator BJ.TLCK / AUC, modulator BJ.atoc / AUC, modulator BJ.trolox / AUC, modulator BJ.zVAD: unit not given beside the values; conditions: BJeLR cells, modulatory profile value (AUC); for AUC, modulator BJ.3MA: lethal compound cotreated with modulator 3MA; for AUC, modulator BJ.ALLN: lethal compound cotreated with modulator ALLN; for AUC, modulator BJ.Boc D: lethal compound cotreated with modulator Boc D; for AUC, modulator BJ.CHX: lethal compound cotreated with modulator CHX; for AUC, modulator BJ.Co2+: lethal compound cotreated with modulator Co2+; for AUC, modulator BJ.DPQ: lethal compound cotreated with modulator DPQ; for AUC, modulator BJ.Gd3+: lethal compound cotreated with modulator Gd3+; for AUC, modulator BJ.LNAME: lethal compound cotreated with modulator LNAME; for AUC, modulator BJ.Lmin/NAD+: lethal compound cotreated with modulator Lmin/NAD+; for AUC, modulator BJ.Lmin: lethal compound cotreated with modulator Lmin; for AUC, modulator BJ.NAD+: lethal compound cotreated with modulator NAD+; for AUC, modulator BJ.NMMA: lethal compound cotreated with modulator NMMA; for AUC, modulator BJ.Nec-1: lethal compound cotreated with modulator Nec-1; for AUC, modulator BJ.Pepstatin: lethal compound cotreated with modulator Pepstatin; for AUC, modulator BJ.TLCK: lethal compound cotreated with modulator TLCK; for AUC, modulator BJ.3MA: reference of the scale not given here; for AUC, modulator BJ.ALLN: reference of the scale not given here; for AUC, modulator BJ.Boc D: reference of the scale not given here; for AUC, modulator BJ.CHX: reference of the scale not given here; for AUC, modulator BJ.Co2+: reference of the scale not given here; for AUC, modulator BJ.DPQ: reference of the scale not given here; for AUC, modulator BJ.Gd3+: reference of the scale not given here; for AUC, modulator BJ.LNAME: reference of the scale not given here; for AUC, modulator BJ.NAD+: reference of the scale not given here; for AUC, modulator BJ.NMMA: reference of the scale not given here; for AUC, modulator BJ.Nec-1: reference of the scale not given here; for AUC, modulator BJ.Pepstatin: reference of the scale not given here; for AUC, modulator BJ.TLCK: reference of the scale not given here

Cc1cccc(Cn2ncc(Cl)c(Cl)c2=O)c1 [CIL60]
AUC HT.ATA (HT-1080): 0.07052 | AUC HT.ActD (HT-1080): 0.04832 | AUC HT.BHA (HT-1080): −0.0006407 | AUC HT.BHT (HT-1080): −0.1303 | AUC HT.BocD (HT-1080): −0.04051 | AUC HT.CHX (HT-1080): 0.112 | AUC HT.Co2+ (HT-1080): −0.08003 | AUC HT.CspA (HT-1080): −0.004831 | AUC HT.DPQ (HT-1080): 0.02073 | AUC HT.EGTA (HT-1080): 0.05296 | AUC HT.Gd3+ (HT-1080): −0.0163 | AUC HT.LNAME (HT-1080): 0.004397 | AUC HT.Lmim (HT-1080): 0.03464 | AUC HT.NAD+ (HT-1080): 0.01526 | AUC HT.NMMA (HT-1080): −0.01091 | HT.atoc (AUC) (HT-1080): 0.08708 | HT.bCarotene (AUC) (HT-1080): 0.04979 | HT.deferox (AUC) (HT-1080): 0.07702 | HT.digoxin (AUC) (HT-1080): −0.03602 | HT.trolox (AUC) (HT-1080): −0.0265 | HT.zVAD (AUC) (HT-1080): −0.009922 | AUC, modulator BJ.3MA (BJeLR): 0.06736 | AUC, modulator BJ.ALLN (BJeLR): −0.004197 | AUC, modulator BJ.Boc D (BJeLR): 0.02626 | AUC, modulator BJ.CHX (BJeLR): 0.1803 | AUC, modulator BJ.Co2+ (BJeLR): 0.03836 | AUC, modulator BJ.DPQ (BJeLR): 0.02057 | AUC, modulator BJ.Gd3+ (BJeLR): 0.02704 | AUC, modulator BJ.LNAME (BJeLR): −0.01542 | AUC, modulator BJ.Lmin/NAD+ (BJeLR): 0.05888 | AUC, modulator BJ.Lmin (BJeLR): 0.04196 | AUC, modulator BJ.NAD+ (BJeLR): 0.05735 | AUC, modulator BJ.NMMA (BJeLR): −0.03338 | AUC, modulator BJ.Nec-1 (BJeLR): 0.08176 | AUC, modulator BJ.Pepstatin (BJeLR): 0.1359 | AUC, modulator BJ.TLCK (BJeLR): −0.06705

O=C(Oc1ccc(Cl)c2cccnc12)c1ccco1 [CIL58]
AUC HT.ATA (HT-1080): 0.05141 | AUC HT.ActD (HT-1080): 0.02044 | AUC HT.BHA (HT-1080): −0.03989 | AUC HT.BHT (HT-1080): −0.1355 | AUC HT.BocD (HT-1080): −0.02082 | AUC HT.CHX (HT-1080): −0.05674 | AUC HT.Co2+ (HT-1080): 0.09509 | AUC HT.CspA (HT-1080): 0.06761 | AUC HT.DPQ (HT-1080): −0.005922 | AUC HT.EGTA (HT-1080): 0.05184 | AUC HT.Gd3+ (HT-1080): −0.004674 | AUC HT.LNAME (HT-1080): −0.09982 | AUC HT.Lmim (HT-1080): −0.07257 | AUC HT.NAD+ (HT-1080): −0.06539 | AUC HT.NMMA (HT-1080): −0.09083 | HT.atoc (AUC) (HT-1080): 0.03305 | HT.bCarotene (AUC) (HT-1080): 0.08558 | HT.deferox (AUC) (HT-1080): 0.08912 | HT.digoxin (AUC) (HT-1080): 0.0229 | HT.trolox (AUC) (HT-1080): −0.04791 | HT.zVAD (AUC) (HT-1080): 0.02459 | AUC, modulator BJ.3MA (BJeLR): 0.03403 | AUC, modulator BJ.ALLN (BJeLR): 0.01846 | AUC, modulator BJ.Boc D (BJeLR): −0.007995 | AUC, modulator BJ.CHX (BJeLR): −0.04911 | AUC, modulator BJ.Co2+ (BJeLR): 0.2386 | AUC, modulator BJ.DPQ (BJeLR): 0.009922 | AUC, modulator BJ.Gd3+ (BJeLR): 0.02131 | AUC, modulator BJ.LNAME (BJeLR): −0.02811 | AUC, modulator BJ.Lmin/NAD+ (BJeLR): 0.02713 | AUC, modulator BJ.Lmin (BJeLR): −0.009172 | AUC, modulator BJ.NAD+ (BJeLR): 0.02238 | AUC, modulator BJ.NMMA (BJeLR): −0.05299 | AUC, modulator BJ.Nec-1 (BJeLR): 0.0983 | AUC, modulator BJ.Pepstatin (BJeLR): 0.07532 | AUC, modulator BJ.TLCK (BJeLR): 0.1505

CCCCS(=O)(=O)/C=C\C=C/S(=O)(=O)CCCC [CIL49]
AUC HT.ATA (HT-1080): 0.04768 | AUC HT.ActD (HT-1080): −0.01874 | AUC HT.BHA (HT-1080): −0.01433 | AUC HT.BHT (HT-1080): −0.08297 | AUC HT.BocD (HT-1080): −0.0224 | AUC HT.CHX (HT-1080): −0.009484 | AUC HT.Co2+ (HT-1080): 0.008808 | AUC HT.CspA (HT-1080): 0.04471 | AUC HT.DPQ (HT-1080): −0.02418 | AUC HT.EGTA (HT-1080): 0.02252 | AUC HT.Gd3+ (HT-1080): 0.000907 | AUC HT.LNAME (HT-1080): 0.01289 | AUC HT.Lmim (HT-1080): −0.03685 | AUC HT.NAD+ (HT-1080): −0.01413 | AUC HT.NMMA (HT-1080): 0.000429 | HT.atoc (AUC) (HT-1080): 0.02137 | HT.bCarotene (AUC) (HT-1080): −0.02606 | HT.deferox (AUC) (HT-1080): 0.07453 | HT.digoxin (AUC) (HT-1080): 0.001647 | HT.trolox (AUC) (HT-1080): −0.01523 | HT.zVAD (AUC) (HT-1080): 0.009879 | AUC, modulator HT.3MA (HT-1080; HT-1080 cells, lethal compound cotreated with modulator 3MA, modulatory profile value (AUC)): 0.05435 | AUC, modulator HT.ALLN (HT-1080; HT-1080 cells, lethal compound cotreated with modulator ALLN, modulatory profile value (AUC)): 0.0662 | AUC, modulator BJ.3MA (BJeLR): 0.04504 | AUC, modulator BJ.ALLN (BJeLR): −0.05864 | AUC, modulator BJ.Boc D (BJeLR): −0.0257 | AUC, modulator BJ.CHX (BJeLR): 0.1692 | AUC, modulator BJ.Co2+ (BJeLR): 0.009716 | AUC, modulator BJ.DPQ (BJeLR): −0.002084 | AUC, modulator BJ.Gd3+ (BJeLR): −0.006048 | AUC, modulator BJ.LNAME (BJeLR): −0.007857 | AUC, modulator BJ.Lmin/NAD+ (BJeLR): 0.07067 | AUC, modulator BJ.Lmin (BJeLR): 0.03689 | AUC, modulator BJ.NAD+ (BJeLR): 0.02344 | AUC, modulator BJ.NMMA (BJeLR): 0.006898 | AUC, modulator BJ.Nec-1 (BJeLR): 0.001972 | AUC, modulator BJ.Pepstatin (BJeLR): 0.02852 | AUC, modulator BJ.TLCK (BJeLR): −0.03549 | AUC, modulator BJ.atoc (BJeLR; lethal compound cotreated with modulator atoc): −0.008324 | AUC, modulator BJ.trolox (BJeLR; lethal compound cotreated with modulator trolox): −0.02337 | AUC, modulator BJ.zVAD (BJeLR; lethal compound cotreated with modulator zVAD): −0.001762

CN(C)CCNC(=O)c1cc2c(s1)-c1ccc(Cl)cc1SC2 [CIL55]
AUC HT.ATA (HT-1080): 0.05195 | AUC HT.ActD (HT-1080): −0.0079 | AUC HT.BHA (HT-1080): 0.09593 | AUC HT.BHT (HT-1080): 0.04919 | AUC HT.BocD (HT-1080): 0.01568 | AUC HT.CHX (HT-1080): −0.01039 | AUC HT.Co2+ (HT-1080): 0.1152 | AUC HT.CspA (HT-1080): −0.007883 | AUC HT.DPQ (HT-1080): 0.01405 | AUC HT.EGTA (HT-1080): 0.04877 | AUC HT.Gd3+ (HT-1080): −0.01479 | AUC HT.LNAME (HT-1080): 0.007171 | AUC HT.Lmim (HT-1080): 0.07005 | AUC HT.NAD+ (HT-1080): 0.03996 | AUC HT.NMMA (HT-1080): 0.004761 | HT.atoc (AUC) (HT-1080): 0.2074 | HT.bCarotene (AUC) (HT-1080): 0.001297 | HT.deferox (AUC) (HT-1080): 0.1108 | HT.digoxin (AUC) (HT-1080): −0.0491 | HT.trolox (AUC) (HT-1080): 0.1469 | HT.zVAD (AUC) (HT-1080): 0.0266 | AUC, modulator BJ.3MA (BJeLR): 0.06354 | AUC, modulator BJ.ALLN (BJeLR): −0.04685 | AUC, modulator BJ.Boc D (BJeLR): −0.01499 | AUC, modulator BJ.CHX (BJeLR): 0.0373 | AUC, modulator BJ.Co2+ (BJeLR): 0.03522 | AUC, modulator BJ.DPQ (BJeLR): 0.01735 | AUC, modulator BJ.Gd3+ (BJeLR): 0.003555 | AUC, modulator BJ.LNAME (BJeLR): −0.02008 | AUC, modulator BJ.Lmin/NAD+ (BJeLR): 0.1924 | AUC, modulator BJ.Lmin (BJeLR): 0.08143 | AUC, modulator BJ.NAD+ (BJeLR): 0.02772 | AUC, modulator BJ.NMMA (BJeLR): −0.002759 | AUC, modulator BJ.Nec-1 (BJeLR): 0.09849 | AUC, modulator BJ.Pepstatin (BJeLR): 0.02873 | AUC, modulator BJ.TLCK (BJeLR): 0.07378
